The values below come from patent US7482321B2, “Extended glucagon-like peptide-1 analogs” (Eli Lilly and Company, priority 2002, dated 2009).

Ends that are not written are not given here. A value given as a limit tells only on which side of the number the result lay.

For series [1] the following is noted: rat, in vivo, iv, 10 ug/kg.
Procedure: (§1) Pharmacokinetic parameters were determined for the following 5 different extended GLP-1 peptides:
(§2) Parameters were determined following a single intravenous dose of 10 μg/kg in four different rats.
The nature of series [2]: in vivo. To be noted: Sprague Dawley, rat, iv, 10 ug/kg, Plasma Concentration.
Procedure: as §1, §2

The term AUC(0-t) denotes exposure summed from dosing to a finite time, without extrapolation to infinity. A higher AUC(0-t) goes with high exposure. As usually defined, the clearance is the volume of plasma or blood freed of the substance per unit of time. A higher clearance goes with efficient removal. The term Cmax denotes the maximum level reached in the sampled fluid or tissue. One may read the Vd as a proportionality between amount in the body and measured concentration, not a real space. For orientation: half-life means the time in which the quantity being followed falls by half. Sequence “HVEGTFTSDWSSYLEEQAAKEFIAWLIKGRGSSGAPPPS [Compound 5]” showed an AUC(0-t) in series [1] (AUC0-last) of 12.5 ng·h/mL. This sequence also gave a clearance in series [1] (Cl) of 13.4 mL/min/kg. The sequence further came in with a Cmax in series [1] (Cmax) of 35.9 ng/mL. Moreover, the Vd in series [1] (Vss) was 0.179 L/kg. In addition, in series [1] (t½), the half-life turned out to be 11.9 min. Besides, in series [2], the level at 5 min turned out to be 35.9 ng/mL, the level at 0.25 h is 16.1 ng/mL and the level at 2 h was less than 0.15 ng/mL.
